Values of other authors, collected in US12433863B2, “Pharmaceutical compositions and uses directed to lysosomal storage disorders” (INTRABIO LIMITED, priority 2016, dated 2025).

Columns and labels:
[1] = test system: rat model of an acute unilateral labyrinthectomy; conditions: Gunther et al. 2015; cited from earlier work
[2] = test system: glycosphingolipid (GSL) biosynthesis; conditions: Patterson, 2006; cited from earlier work

Row | SMILES | Effect on postural compensation [1] | Benefit in clinical trial of substrate reduction therapy [2]
1 | CC(=O)N[C@@H](CC(C)C)C(=O)O [N-acetyl-L-leucine] | significant effect | 
2 | CCCCN1C[C@H](O)[C@@H](O)[C@H](O)[C@H]1CO [miglustat] |  | some benefit
